Measured values: US20200291018A1, “TAM KINASE INHIBITORS” (SYROS PHARMACEUTICALS, INC., priority 2017, published 2020)

Tests used:
MERTK = target: T1, MERTK (Homo sapiens, UniProt Q12866); assay: TR-FRET kinase activity assay, MERTK; type: biochemical; conditions: for IC50: TR-FRET activity assay, ATP at Km, 60 minutes, read-out: Mer IC50; for Mer/Flt3 ratio (FLT3 IC50/Mer IC50): ratio calculated as FLT3 IC50/Mer IC50
T1 sequence (Q12866 21-999): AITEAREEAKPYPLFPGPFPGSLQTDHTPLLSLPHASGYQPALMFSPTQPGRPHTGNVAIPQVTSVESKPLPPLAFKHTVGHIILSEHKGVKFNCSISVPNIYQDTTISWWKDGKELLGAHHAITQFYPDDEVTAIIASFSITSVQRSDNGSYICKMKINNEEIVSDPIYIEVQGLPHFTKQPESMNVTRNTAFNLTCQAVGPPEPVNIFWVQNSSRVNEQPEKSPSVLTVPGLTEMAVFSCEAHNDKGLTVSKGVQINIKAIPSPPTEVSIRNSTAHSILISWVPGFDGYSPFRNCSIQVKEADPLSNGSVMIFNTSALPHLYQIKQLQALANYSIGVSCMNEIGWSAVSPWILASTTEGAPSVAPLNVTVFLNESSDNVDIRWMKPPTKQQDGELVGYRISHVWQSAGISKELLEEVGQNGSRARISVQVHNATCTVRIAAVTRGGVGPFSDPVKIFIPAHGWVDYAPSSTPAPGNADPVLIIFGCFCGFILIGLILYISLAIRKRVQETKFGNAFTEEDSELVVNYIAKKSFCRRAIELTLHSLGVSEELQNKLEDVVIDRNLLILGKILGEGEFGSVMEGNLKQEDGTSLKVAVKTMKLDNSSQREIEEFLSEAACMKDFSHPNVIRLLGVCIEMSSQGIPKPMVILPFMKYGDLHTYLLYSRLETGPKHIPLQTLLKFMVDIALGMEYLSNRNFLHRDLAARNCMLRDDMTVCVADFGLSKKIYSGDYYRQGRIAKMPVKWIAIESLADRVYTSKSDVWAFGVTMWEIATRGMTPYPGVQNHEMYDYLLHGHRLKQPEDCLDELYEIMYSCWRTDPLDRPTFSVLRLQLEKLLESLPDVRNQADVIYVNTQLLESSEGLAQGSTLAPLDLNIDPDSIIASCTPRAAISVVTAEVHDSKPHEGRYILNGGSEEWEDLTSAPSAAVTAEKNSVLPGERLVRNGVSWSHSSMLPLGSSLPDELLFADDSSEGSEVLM
How it was run: (§1)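 TR-FRET signal from Eu-labeled phospho-site antibody bound to tyrosine-phosphorylated fluorescent peptide; inhibition lowers signal, giving IC50. Reactions: 50 mM HEPES pH 7.5, 10 mM MgCl2, 1 mM EGTA, 0.01% Brij 35, 1 mM DTT, ATP at Km per enzyme, 60 min, RT.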

TYRO3 = target: T2, TYRO3 (Homo sapiens, UniProt Q06418); assay: TR-FRET kinase activity assay, TYRO3; type: biochemical; conditions: ATP at Km, 60 minutes
T2 sequence (Q06418 41-890): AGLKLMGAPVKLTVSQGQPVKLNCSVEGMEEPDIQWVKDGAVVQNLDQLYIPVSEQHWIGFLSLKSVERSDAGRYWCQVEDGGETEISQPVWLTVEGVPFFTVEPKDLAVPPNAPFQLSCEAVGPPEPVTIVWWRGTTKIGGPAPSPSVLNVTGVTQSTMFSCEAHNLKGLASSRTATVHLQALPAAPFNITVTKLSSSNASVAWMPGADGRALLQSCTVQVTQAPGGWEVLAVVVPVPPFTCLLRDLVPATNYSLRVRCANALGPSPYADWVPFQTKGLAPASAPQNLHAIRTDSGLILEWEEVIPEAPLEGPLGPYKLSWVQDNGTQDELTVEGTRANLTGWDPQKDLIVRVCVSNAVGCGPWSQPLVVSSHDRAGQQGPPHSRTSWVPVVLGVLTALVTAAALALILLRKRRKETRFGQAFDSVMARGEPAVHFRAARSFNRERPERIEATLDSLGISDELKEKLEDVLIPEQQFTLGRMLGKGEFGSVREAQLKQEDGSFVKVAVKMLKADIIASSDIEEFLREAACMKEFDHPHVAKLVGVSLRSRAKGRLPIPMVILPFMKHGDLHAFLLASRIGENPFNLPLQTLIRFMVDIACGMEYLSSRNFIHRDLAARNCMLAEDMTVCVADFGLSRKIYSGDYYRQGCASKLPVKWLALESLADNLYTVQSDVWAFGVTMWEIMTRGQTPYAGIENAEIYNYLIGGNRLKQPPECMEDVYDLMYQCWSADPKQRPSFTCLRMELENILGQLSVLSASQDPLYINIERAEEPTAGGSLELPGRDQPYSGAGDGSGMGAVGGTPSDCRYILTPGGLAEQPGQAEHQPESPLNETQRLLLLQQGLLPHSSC
How it was run: as §1

## COCCN1C(C)(C)CC(Oc2ncc([C@H]3CC[C@H](O)CC3)c3nc(N[C@@H](C)CCO)ncc23)CC1(C)C [Compound 380]
MERTK
  IC50: ≤ 100 nM
  Mer/Flt3 ratio (FLT3 IC50/Mer IC50): +++ (a ratio of >100)
TYRO3
  IC50: ≤ 100 nM

## COCCN1C(C)(C)CC(Oc2ncc([C@H]3CC[C@H](O)CC3)c3nc(N[C@@H](C)CF)ncc23)CC1(C)C [Compound 381]
MERTK
  IC50: ≤ 100 nM
  Mer/Flt3 ratio (FLT3 IC50/Mer IC50): +++ (a ratio of >100)
TYRO3
  IC50: ≤ 100 nM

## C[C@@H](CF)Nc1ncc2c(OC3CC(C)(C)N(C)C(C)(C)C3)ncc([C@H]3CC[C@H](O)CC3)c2n1 [Compound 382]
MERTK
  IC50: ≤ 100 nM
  Mer/Flt3 ratio (FLT3 IC50/Mer IC50): +++ (a ratio of >100)
TYRO3
  IC50: ≤ 100 nM

## C[C@@H](CC(F)(F)F)Nc1ncc2c(OC3CCN([C@H]4CCOC4)CC3)ncc([C@H]3CC[C@H](O)CC3)c2n1 [Compound 383]
MERTK
  IC50: ≤ 100 nM
  Mer/Flt3 ratio (FLT3 IC50/Mer IC50): +++ (a ratio of >100)
TYRO3
  IC50: ≤ 100 nM

## COC[C@H](C)Nc1ncc2c(O[C@H]3CCN(C)C(C)(C)C3)ncc([C@H]3CC[C@H](O)CC3)c2n1 [Compound 384]
MERTK
  IC50: ≤ 100 nM
  Mer/Flt3 ratio (FLT3 IC50/Mer IC50): +++ (a ratio of >100)
TYRO3
  IC50: ≤ 100 nM

## COC[C@H](C)Nc1ncc2c(O[C@@H]3CCN(C)C(C)(C)C3)ncc([C@H]3CC[C@H](O)CC3)c2n1 [Compound 385]
MERTK
  IC50: ≤ 100 nM
  Mer/Flt3 ratio (FLT3 IC50/Mer IC50): +++ (a ratio of >100)
TYRO3
  IC50: ≤ 100 nM

## C[C@@H](CC(F)(F)F)Nc1ncc2c(OC3CC(C)(C)N(C)C(C)(C)C3)ncc([C@H]3CC[C@H](O)CC3)c2n1 [Compound 386]
MERTK
  IC50: ≤ 100 nM
  Mer/Flt3 ratio (FLT3 IC50/Mer IC50): +++ (a ratio of >100)
TYRO3
  IC50: ≤ 100 nM

## COC[C@H](C)Nc1ncc2c(OC3C[C@H](C)N(C)[C@@H](C)C3)ncc([C@H]3CC[C@H](O)CC3)c2n1 (stereo partly drawn) [Compound 387]
MERTK
  IC50: ≤ 100 nM
  Mer/Flt3 ratio (FLT3 IC50/Mer IC50): +++ (a ratio of >100)
TYRO3
  IC50: ≤ 100 nM

## COC[C@H](C)Nc1ncc2c(OC3C[C@@H](C)N(C)[C@H](C)C3)ncc([C@H]3CC[C@H](O)CC3)c2n1 (stereo partly drawn) [Compound 388]
MERTK
  IC50: ≤ 100 nM
  Mer/Flt3 ratio (FLT3 IC50/Mer IC50): +++ (a ratio of >100)
TYRO3
  IC50: ≤ 100 nM

## C[C@@H](CC(F)(F)F)Nc1ncc2c(OC3CCN(S(C)(=O)=O)CC3)ncc([C@H]3CC[C@H](O)CC3)c2n1 [Compound 389]
MERTK
  IC50: ≤ 100 nM
  Mer/Flt3 ratio (FLT3 IC50/Mer IC50): +++ (a ratio of >100)
TYRO3
  IC50: 100 to 1000 nM

## COCCN1C(C)(C)CC(Oc2ncc([C@H]3CC[C@H](O)CC3)c3nc(N[C@@H]4CCOC4)ncc23)CC1(C)C [Compound 390]
MERTK
  IC50: ≤ 100 nM
  Mer/Flt3 ratio (FLT3 IC50/Mer IC50): ++ (a ratio of between 10 and 100)
TYRO3
  IC50: 100 to 1000 nM

## CCN1C(C)(C)CC(Oc2ncc([C@H]3CC[C@H](O)CC3)c3nc(N[C@@H](C)CC(F)(F)F)ncc23)CC1(C)C [Compound 391]
MERTK
  IC50: ≤ 100 nM
  Mer/Flt3 ratio (FLT3 IC50/Mer IC50): +++ (a ratio of >100)
TYRO3
  IC50: ≤ 100 nM

## O[C@H]1CC[C@H](c2cnc(OC3CCOCC3)c3cnc(Nc4ccc(-c5nn[nH]n5)cc4)nc32)CC1 [Compound 392]
MERTK
  IC50: ≤ 100 nM
  Mer/Flt3 ratio (FLT3 IC50/Mer IC50): +++ (a ratio of >100)
TYRO3
  IC50: ≤ 100 nM

## COC[C@H](C)Nc1ncc2c(O[C@H]3C[C@@H](C(=O)N4CCN(C)CC4)C3)ncc([C@H]3CC[C@H](O)CC3)c2n1 [Compound 393]
MERTK
  IC50: ≤ 100 nM
  Mer/Flt3 ratio (FLT3 IC50/Mer IC50): +++ (a ratio of >100)
TYRO3
  IC50: ≤ 100 nM

## C[C@@H](Nc1ncc2c(OC3CCOCC3)ncc([C@H]3CC[C@H](O)CC3)c2n1)C(F)F [Compound 394]
MERTK
  IC50: ≤ 100 nM
  Mer/Flt3 ratio (FLT3 IC50/Mer IC50): +++ (a ratio of >100)
TYRO3
  IC50: 100 to 1000 nM
